Patent US20150157575A1, “Pharmaceutical Formulations Comprising Vilazodone” (Forest Laboratories Holdings Ltd., priority 2013, published 2015)
Where two headings read alike, the source gives them in different places.

Tests used:
[1] = Study 1: single-dose pharmacokinetics in mild or moderate hepatic impairment and matched healthy controls; type: in vivo, human; settings: for AUC(0-inf) / AUC(0-t) / Cmax / half-life / Tmax: both sexes, human, plasma, po, 20 mg, vilazodone 20 mg single oral dose
Experimental: The pharmacokinetics, tolerability, and safety of vilazodone were investigated in two separate trials involving participants with hepatic impairment, compared with healthy controls. An Open-label, parallel-group, single-dose pharmacokinetic studies, a single, oral dose of vilazodone (20 mg with increased hardness) was administered to participants with mild, moderate, or severe hepatic impairment or individually matched controls. Outcomes included pharmacokinetic parameters and safety (vital signs, clinical laboratory evaluations, ECG, and adverse events [AEs]). Plasma samples were analyzed using validated LC/MS/MS methods.
Data from two, open-label, parallel-group, single-dose pharmacokinetic studies investigated single-dose vilazodone (20 mg with increased hardness) in participants with hepatic impairment and normal hepatic function. The first study (Study 1) included participants with mild or moderate hepatic impairment and healthy controls. The second study (Study 2) included participants with severe hepatic impairment or healthy participants. These studies were both designed in accordance with the FDA guidance for evaluation of pharmacokinetics in the presence of hepatic impairment. The differences between the study protocols were minimal, so both methodologies are described together, with any differences noted below.
Participants were men and women, 18 to 70 years of age, with a body mass index (BMI) of 18-42 kg/m^2. Women were not pregnant or breastfeeding and agreed to utilize a medically accepted form of contraception during the study (as did men in Study 2). In Study 2, participants were also required to be non-smokers or light smokers (fewer than 10 cigarettes per day; there was no stipulation in Study 1) and to have a sitting pulse rate of 50-100 bpm at screening and prior to dosing on Day 1. […] Each healthy control was matched with a hepatically impaired participant. Control participants in the Study 1 were matched with a hepatically impaired individual according to age (±10 years), sex, and BMI (±15%). Control participants in Study 2 were matched with a hepatically impaired individual according to age (±5 years), sex, and weight (±10%).
Participants with hepatic dysfunction were classified according to the Child-Pugh hepatic dysfunction staging system as having mild (5-6 points) or moderate (7-9 points) hepatic impairment (Study 1), or severe impairment (10-15 points; Study 2). Participants with severe impairment also had chronic liver disease and/or compensated cirrhosis, as evidenced by liver biopsy, computerized tomography or ultrasonic evidence of hepatic fibrosis, clinical evidence of chronic liver disease, or a colloid shift on a liver-spleen scan. Exclusion criteria included the following: a clinical diagnosis or history of depression; treatment with antidepressants, anxiolytics, psychoactive medications (including herbal supplements), other serotonergic drugs, or drugs that inhibit CYP3A4 (eg, ketoconazole, diltiazem, macrolide antibiotics); a hypersensitivity to vilazodone or other SSRIs or 5-HT agonists; history or evidence of alcohol or substance abuse, cancer, human immunodeficiency virus, hepatitis B (Study 1 and healthy controls, both studies) hepatitis C (healthy controls, both studies), or other clinically significant illnesses or medical conditions. Participants with severe hepatic impairment were excluded if they had bleeding diathesis, advanced ascites requiring large-volume paracentesis within 1 week of dosing, esophageal bleeding within the previous 8 weeks, history of portosystemic shunt or hepatic transplant, or evidence of hepatic encephalopathy, hepatorenal syndrome, or other evidence of rapid hepatic deterioration.
Participants were not allowed to have previously taken vilazodone or participated in any clinical investigation requiring repeated blood draws within 60 days of dosing, or donated blood or plasma within 60 or 30 days, respectively.

dopamine reuptake site = dopamine reuptake site (Homo sapiens, UniProt Q01959); settings: cited from earlier work
Sequence of dopamine reuptake site (Q01959 whole entry): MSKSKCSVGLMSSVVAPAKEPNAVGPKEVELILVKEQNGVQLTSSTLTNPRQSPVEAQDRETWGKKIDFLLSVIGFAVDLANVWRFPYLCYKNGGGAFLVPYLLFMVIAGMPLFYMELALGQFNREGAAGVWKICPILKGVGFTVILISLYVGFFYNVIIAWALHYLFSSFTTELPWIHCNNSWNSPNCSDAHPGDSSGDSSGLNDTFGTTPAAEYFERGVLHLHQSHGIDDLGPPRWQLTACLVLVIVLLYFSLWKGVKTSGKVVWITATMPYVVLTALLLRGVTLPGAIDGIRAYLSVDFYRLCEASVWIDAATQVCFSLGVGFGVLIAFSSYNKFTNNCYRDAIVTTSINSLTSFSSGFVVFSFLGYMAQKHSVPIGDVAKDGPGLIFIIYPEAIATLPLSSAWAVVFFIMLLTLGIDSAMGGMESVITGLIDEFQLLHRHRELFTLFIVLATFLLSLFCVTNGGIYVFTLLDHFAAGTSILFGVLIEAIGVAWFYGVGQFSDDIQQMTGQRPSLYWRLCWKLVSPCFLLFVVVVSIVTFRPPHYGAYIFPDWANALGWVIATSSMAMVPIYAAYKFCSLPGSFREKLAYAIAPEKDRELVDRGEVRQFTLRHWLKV

plasma proteins = assay: Vilazodone protein binding by equilibrium dialysis (Studies 1 and 2); type: in vitro ADME; settings: both sexes, human, plasma of study participants, read-out: mean percent free fraction in plasma
Experimental: In both studies, additional samples (6 mL each) were collected to determine vilazodone protein binding: in Study 1, these samples were collected in duplicate at predose hour 0 and postdose hours 6 and 12; in Study 2, the samples were collected at predose hour 0 and postdose hours 4 and 12, with an additional sample (13 mL) collected at hour 0 for the determination of albumin concentration.
The plasma concentrations of vilazodone (Studies 1 and 2) and its metabolite M17 (Study 2), vilazodone concentrations in urine (Study 1), and protein binding were determined using liquid chromatography with tandem mass spectrometry (LC/MS/MS) methodologies that have been validated for the following ranges: plasma vilazodone, 0.75 to 250 ng/mL (Study 1) and 0.5 to 250 ng/mL (Study 2); plasma M17, 0.25-125 ng/mL; urine vilazodone, 1.0-200 ng/mL; vilazodone protein binding, high range (sample compartment) 2.7-108 ng/mL, low range (buffer compartment) 0.1-5.4 ng/mL. The extent of vilazodone binding to plasma proteins was determined using equilibrium dialysis.

[2] = Mild impairment/control, 20 mg single dose
[3] = Moderate impairment/control, 20 mg single dose
[4] = Control matched to Mild Impairment n = 8
[5] = Control matched to Moderate Impairment n = 8

In the case of `Cl.N#Cc1ccc2[nH]cc(CCCCN3CCN(c4ccc5oc(C(N)=O)cc5c4)CC3)c2c1` [Vilazodone, 1-[4-(5-cyanoindol-3-yl)butyl]-4-(2-carbamoyl-benzofuran-5-yl)-piperazine hydrochloride], the “AUC0-t, Ratio of Geometric Means (%)” value [1, 2] is reported as 97.7%, the “AUC0-∞, Ratio of Geometric Means (%)” value [1, 2] is reported as 98.0% and the “Cmax, Ratio of Geometric Means (%)” value [1, 2] is reported as 97.8%. The “AUC0-t, Ratio of Geometric Means (%)” value [1, 3] was 89.5%, the “AUC0-∞, Ratio of Geometric Means (%)” value [1, 3] was 90.5% and the “Cmax, Ratio of Geometric Means (%)” value [1, 3] was 97.2%. The AUC(0-inf) [1, 4] was 945 ± 169 ng·h/mL, the AUC(0-t) [1, 4] was 898 ± 168 ng·h/mL and the Cmax [1, 4] was 43.1 ± 13.1 ng/mL. It also gave a half-life [1, 4] of 25.9 ± 5.9 h, a Tmax ([1]; Control matched to Mild Impairment n = 8, read-out: Tmax (mean)) of 5 ± 1.5 h and a Tmax ([1]; Control matched to Mild Impairment n = 8, read-out: Tmax, Median) of 5 h. The AUC(0-inf) [1, 5] was 809 ± 231 ng·h/mL, the AUC(0-t) [1, 5] was 768 ± 229 ng·h/mL and the Cmax [1, 5] was 35.8 ± 10.7 ng/mL. It also gave a half-life [1, 5] of 25.4 ± 5.5 h, a Tmax ([1]; Control matched to Moderate Impairment n = 8, read-out: Tmax (mean)) of 4.9 ± 0.84 h and a Tmax ([1]; Control matched to Moderate Impairment n = 8, read-out: Tmax, Median) of 5 h. The AUC(0-inf) ([1]; Mild Impairment n = 8) was 1030 ± 506 ng·h/mL, the AUC(0-t) ([1]; Mild Impairment n = 8) was 984 ± 505 ng·h/mL and the Cmax ([1]; Mild Impairment n = 8) was 44.1 ± 16.5 ng/mL. It also gave a half-life ([1]; Mild Impairment n = 8) of 30.6 ± 8.2 h, a Tmax ([1]; Mild Impairment n = 8, read-out: Tmax (mean)) of 4.6 ± 1.6 h and a Tmax ([1]; Mild Impairment n = 8, read-out: Tmax, Median) of 4.5 h. The AUC(0-inf) ([1]; Moderate Impairment n = 8) was 727 ± 196 ng·h/mL, the AUC(0-t) ([1]; Moderate Impairment n = 8) was 683 ± 190 ng·h/mL and the Cmax ([1]; Moderate Impairment n = 8) was 34.2 ± 8.2 ng/mL. The half-life ([1]; Moderate Impairment n = 8) was 29.4 ± 11.4 h, the Tmax ([1]; Moderate Impairment n = 8, read-out: Tmax (mean)) was 4.1 ± 1.8 h and the Tmax ([1]; Moderate Impairment n = 8, read-out: Tmax, Median) was 4 h. The “mean recovery of unchanged vilazodone in urine over 96 hours” value ([1]; healthy participants and mild and moderate hepatic impairment, 20 mg single dose) was ≤ 1.3 % of the dose, the “binding to dopamine reuptake site” value (dopamine reuptake site) was “not” and the fraction unbound (plasma proteins; all participants with severe hepatic impairment) was 0.0224. The fraction unbound (plasma proteins; healthy controls) was 0.01 to 0.014, the fraction unbound (plasma proteins; participants with mild or moderate hepatic impairment) was 0.016 and the fraction unbound (plasma proteins; participants with severe hepatic impairment who did not vomit) was 0.0213.
